This is an account of results in patent US20100184770A1, “COMPOUNDS” (Glaxo Group Limited, priority 2006, published 2010).

Counter-ions that a name gives are not always drawn.

T1 sequence (P35367 whole entry): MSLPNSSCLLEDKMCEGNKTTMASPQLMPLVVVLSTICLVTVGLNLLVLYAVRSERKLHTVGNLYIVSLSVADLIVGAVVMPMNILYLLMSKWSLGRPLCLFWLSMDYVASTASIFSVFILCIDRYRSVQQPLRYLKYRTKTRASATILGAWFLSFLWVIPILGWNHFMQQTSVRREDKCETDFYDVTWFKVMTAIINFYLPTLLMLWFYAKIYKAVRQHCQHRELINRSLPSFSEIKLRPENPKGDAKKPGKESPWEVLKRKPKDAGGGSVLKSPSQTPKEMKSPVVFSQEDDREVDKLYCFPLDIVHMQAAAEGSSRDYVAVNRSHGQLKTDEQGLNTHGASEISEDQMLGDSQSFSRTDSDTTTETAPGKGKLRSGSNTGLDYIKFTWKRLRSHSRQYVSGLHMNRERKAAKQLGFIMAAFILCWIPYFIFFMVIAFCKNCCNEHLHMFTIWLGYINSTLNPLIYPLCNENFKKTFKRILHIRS

This test has as its target T1, human H1 receptor (Homo sapiens, UniProt P35367).
T1 construct: expressed in transfected cells
Nature of the test: Histamine H1 functional antagonist assay: determination of antagonist duration (washout, FLIPR). It counts as cell-based. To be noted: at one or more time points after washout. As for the experimental part: 1. Generation of Histamine H1 Cell Line The human H1 receptor is cloned using known procedures described in the literature [Biochem. Biophys. Res. Commun., 201(2):894 (1994)]. Chinese hamster ovary (CHO) cells stably expressing the human H1 receptor are generated according to known procedures described in the literature [Br. J. Pharmacol., 117(6):1071 (1996)].
To determine the antagonist duration, cells are cultured overnight in non-coated black-walled clear bottom 96-well tissue culture plates, are washed with PBS and are incubated with a concentration of antagonist chosen to give an approximate DR in the range 30-300. Following the 30 min antagonist incubation period, the cells are washed two or three times with 200 μl of PBS and then 100 μl Tyrodes buffer is added to each well to initiate antagonist dissociation. Following incubation for predetermined times, typically 30-270 min at 37° C., the cells are then washed again with 200 μl PBS and are incubated with 100 Tyrodes buffer containing Brilliant Black, probenecid and Fluo-4 for 45 min at 37° C., as described above. After this period, the cells are challenged with histamine in the FLIPR™ as described above. The dose ratio at each time point is used to determine the fractional H1 receptor occupancy by the following equation: fractional receptor occupancy=(DR-1)/DR. The decrease in receptor occupancy over time approximates to a straight line and is analysed by linear regression. The slope of this straight line fit is used as an index of the dissociation rate of the antagonist. The dose ratios for antagonist treated cells and for antagonist treated and washed cells at each time point are used to calculate a relative dose ratio (rel DR) which is also used as an index of antagonist duration. Antagonists with long duration of action produce rel DR values close to 1, and antagonists with short duration of action produce rel DR values that approaches the dose ratio value obtained for antagonist treatment alone.
Turning to `COCCNC(=O)CCCN1CCC[C@@H]1Cn1nc(Cc2ccc(Cl)cc2)c2ccccc2c1=O.O=CO` [Example 24, Formic acid-4-((2R)-2-{[4-[(4-chlorophenyl)methyl]-1-oxo-2(1H)-phthalazinyl]methyl}-1-pyrrolidinyl)-N-[2-(methyloxy)ethyl] butanamide (1:1)], the “duration of action compared with azelastine in the histamine H1 functional antagonist assay” value was “longer duration of action than azelastine”.
As for `O=C(CCN1CCC[C@@H]1Cn1nc(Cc2ccc(Cl)cc2)c2ccccc2c1=O)N1CCCCC1.O=C(O)C(F)(F)F` [Example 12, 4-[(4-chlorophenyl)methyl]-2-({(2R)-1-[3-oxo-3-(1-piperidinyl)propyl]-2-pyrrolidinyl}methyl)-1(2H)-phthalazinone, trifluoroacetate], the “duration of action compared with azelastine in the histamine H1 functional antagonist assay” value is listed as “longer duration of action than azelastine”.
Then `COCCC(=O)NCCCN1CCC[C@@H]1Cn1nc(Cc2ccc(Cl)cc2)c2ccccc2c1=O` [Example 42, N-[3-((2R)-2-{[4-[(4-Chlorophenyl)methyl]-1-oxo-2(1H)-phthalazinyl]methyl}-1-pyrrolidinyl)propyl]-3-(methyloxy)propanamide, trifluoroacetate], with “longer duration of action than azelastine”; and `CC(C)C(=O)NCCN1CCC[C@@H]1Cn1nc(Cc2ccc(Cl)cc2)c2ccccc2c1=O.O=C(O)C(F)(F)F` [Example 41, N-[2-((2R)-2-{[4-[(4-chlorophenyl)methyl]-1-oxo-2(1H)-phthalazinyl]methyl}-1-pyrrolidinyl)ethyl]-2-methylpropanamide, trifluoroacetate], with “longer duration of action than azelastine”; and `COCCCC(=O)NCCN1CCC[C@@H]1Cn1nc(Cc2ccc(Cl)cc2)c2cnccc2c1=O` [Example 70, N-[2-((2R)-2-{[4-[(4-chlorophenyl)methyl]-1-oxopyrido[3,4-d]pyridazin-2(1H)-yl]methyl}-1-pyrrolidinyl)ethyl]-4-(methyloxy)butanamide, trifluoroacetate], with “longer duration of action than azelastine”.
In the case of `O=C(CCN1CCC[C@@H]1Cn1nc(Cc2ccc(Cl)cc2)c2ccccc2c1=O)NCC(F)(F)F` [Example 4, 3-((2R)-2-{[4-[(4-chlorophenyl)methyl]-1-oxo-2(1H)-phthalazinyl]methyl}-1-pyrrolidinyl)-N-(2,2,2-trifluoroethyl)propanamide], the “duration of action compared with azelastine in the histamine H1 functional antagonist assay” value was “longer duration of action than azelastine”.
Then `CC(C)c1noc(CCN2CCC[C@@H]2Cn2nc(Cc3ccc(Cl)cc3)c3ccccc3c2=O)n1.Cl` [Example 61, 4-[(4-Chlorophenyl)methyl]-2-[((2R)-1-{2-[3-(1-methylethyl)-1,2,4-oxadiazol-5-yl]ethyl}-2-pyrrolidinyl)methyl]-1(2H)-phthalazinone, hydrochloride], with “longer duration of action than azelastine”; and `O=C(CCN1CCC[C@@H]1Cn1nc(Cc2ccc(Cl)cc2)c2ccccc2c1=O)NCCF.O=C(O)C(F)(F)F` [Example 1, 3-((2R)-2-{[4-[(4-Chlorophenyl)methyl]-1-oxo-2(1H)-phthalazinyl]methyl}-1-pyrrolidinyl)-N-(2-fluoroethyl)propanamide, trifluoroacetate], with “longer duration of action than azelastine”.
Then `CC(C)(C)NC(=O)CN1CCCC1Cn1nc(Cc2ccc(Cl)cc2)c2ccccc2c1=O.O=C(O)C(F)(F)F` [Example 30, 2-((2R)-2-{[4-[(4-chlorophenyl)methyl]-1-oxo-2(1H)-phthalazinyl]methyl}-1-pyrrolidinyl)-N-(1,1-dimethylethyl) acetamide, trifluoroacetate], with “longer duration of action than azelastine”; and `COCC(=O)NCCN1CCC[C@@H]1Cn1nc(Cc2ccc(Cl)cc2)c2ccccc2c1=O.O=C(O)C(F)(F)F` [Example 39, N-[2-((2R)-2-{[4-[(4-chlorophenyl)methyl]-1-oxo-2(1H)-phthalazinyl]methyl}-1-pyrrolidinyl)ethyl]-2-(methyloxy)acetamide, trifluoroacetate], with “longer duration of action than azelastine”; and `CC(C)(C)C(=O)NCCN1CCC[C@@H]1Cn1nc(Cc2ccc(Cl)cc2)c2ccccc2c1=O.O=C(O)C(F)(F)F` [Example 38, N-[2-((2R)-2-{[4-[(4-chlorophenyl)methyl]-1-oxo-2(1H)-phthalazinyl]methyl}-1-pyrrolidinyl)ethyl]-2,2-dimethylpropanamide, trifluoroacetate], with “longer duration of action than azelastine”.
Then `CC(C)(C)C(=O)NCCCN1CCC[C@@H]1Cn1nc(Cc2ccc(Cl)cc2)c2cnccc2c1=O.O=C(O)C(F)(F)F` [Example 80, N-[3-((2R)-2-{[4-[(4-chlorophenyl)methyl]-1-oxopyrido[3,4-d]pyridazin-2(1H)-yl]methyl}-1-pyrrolidinyl)propyl]-2,2-dimethylpropanamide, trifluoroacetate], with “longer duration of action than azelastine”.
On to `COCCN(C)C(=O)CCN1CCC[C@@H]1Cn1nc(Cc2ccc(Cl)cc2)c2ccccc2c1=O.O=C(O)C(F)(F)F` [Example 14, 3-((2R)-2-{[4-[(4-chlorophenyl)methyl]-1-oxo-2(1H)-phthalazinyl]methyl}-1-pyrrolidinyl)-N-methyl-N-[2-(methyloxy)ethyl] propanamide, trifluoroacetate], for which the “duration of action compared with azelastine in the histamine H1 functional antagonist assay” value is listed as “longer duration of action than azelastine”.
For the compound `CCOCCNC(=O)CCN1CCCC1Cn1nc(Cc2ccc(Cl)cc2)c2ccccc2c1=O.O=C(O)C(F)(F)F` [Example 22, 3-((2R)-2-{[4-[(4-chlorophenyl)methyl]-1-oxo-2(1H)-phthalazinyl]methyl}-1-pyrrolidinyl)-N-[2-(ethyloxy)ethyl] propanamide, trifluoroacetate], the “duration of action compared with azelastine in the histamine H1 functional antagonist assay” value is given as “longer duration of action than azelastine”.
Turning to `O=C(CCN1CCC[C@@H]1Cn1nc(Cc2ccc(Cl)cc2)c2ccccc2c1=O)NCC(F)F.O=CO` [Example 6, formic acid-3-((2R)-2-{[4-[(4-chlorophenyl)methyl]-1-oxo-2(1H)-phthalazinyl]methyl}-1-pyrrolidinyl)-N-(2,2-difluoroethyl)propanamide (1:1)], the “duration of action compared with azelastine in the histamine H1 functional antagonist assay” value was “longer duration of action than azelastine”.
Then `CCCNC(=O)CCCN1CCC[C@@H]1Cn1nc(Cc2ccc(Cl)cc2)c2ccccc2c1=O.Cl` [Example 26, 4-((2R)-2-{[4-[(4-Chlorophenyl)methyl]-1-oxo-2(1H)-phthalazinyl]methyl}-1-pyrrolidinyl)-N-propylbutanamide, hydrochloride], with “longer duration of action than azelastine”.
